Source: PMC5077990, “P53 activation inhibits all types of hematopoietic progenitors and all stages of megakaryopoiesis” (Oncotarget, 2016)
Where two headings read alike, the source gives them in different places.

Legend:
Type in all cases: cell-based, human
[1] = test system: BFU-E (Burst Forming Unit-Erythroid) progenitors from CD34+ cells; test: Colony assay in methylcellulose, BFU-E; conditions: for IC50: Homo sapiens
Procedure: CD34^+cells were obtained from leukapheresis samples after mobilization of donors after informed consent in agreement with our Institute Ethic Committee (Assistance Publique des Hôpitaux de Paris) and in accordance with the Declaration of Helsinki. CD34^+cells were isolated by a positive selection using an immunomagnetic cell sorting system (AutoMacs; Miltenyi Biotec, Bergisch Gladbach, Germany). 500 to 1000 normal CD34^+cells were plated either in 1% methylcellulose assay (StemCells technologies, Vancouver, Canada) to quantify erythroid (BFU-E) and granulo-monocytic (CFU-GM) progenitors or in serum-free fibrin clot assay for quantification of MK progenitors (CFU-MK) in the absence or presence of various concentration of SAR405838 or MI-219. Cultures in methylcellulose were stimulated by addition of human recombinant growth factors: G-CSF (20 ng/mL), IL-3 (10 ng/mL) SCF (25 ng/mL, Biovitrum AB, Stockholm, Sweden), IL-6 (10 ng/mL), FLT3 (10 ng/mL) and human EPO (1 U/mL). Cultures in fibrin clot were stimulated with 10 ng/mL TPO (Kirin Brewery, Tokyo, Japan) and 25 ng/mL SCF. BFU-E and CFU-GM colonies were enumerated at day 14 of culture. CFU-MK colonies were enumerated at day 12 after labeling by an indirect immuno-alkaline phosphatase staining technique using an anti-CD41a monoclonal antibody (MoAb; Becton Dickinson, le Pont de Claix, France; clone HIP8), as previously described.

[2] = test system: p53 target genes (MDM2, PUMA, P21) in CD34+ cells; test: qRT-PCR of p53 target genes in CD34+ cells; conditions: CD34+ cells cultured one day with TPO and SCF; doses 0.75 M, 1.5 μM, 2.5 μM and 5 μM
Procedure: To investigate the impact of p53 stabilization on hematopoietic progenitors, CD34^+ cells were cultured for one day in serum-free medium with TPO and SCF in the presence of the MDM2 antagonist SAR405838 before quantifying the p53 target genes by qRT-PCR.
Figure 1 Effects of SAR405838 on CD34+ progenitors A. Dose-effect of SAR405838 on p53 target genes by qRT-PCR. CD34^+ cells were treated or not with SAR405838 at various doses ([…], 1.5 μM, 2.5 μM and 5 μM). The expression of P53 and its targets (MDM2, PUMA, P21) were quantified by qRT-PCR related to PPIA. Results are the mean ± SEM of 2 independent experiments in duplicate. B, C, D. Cells were seeded in methylcellulose (B, C) or in fibrin clot (D) in the presence of MI-219 or SAR405838 to assay the number of BFU-E, CFU-GM and CFU-MK progenitors. Results are presented as percentage compared to control. Results represent the mean of 3 experiments for BFU-E and CFU-GM and 3 experiments for CFU-MK made in triplicate. * represents statistical significance using student t test (* P<0.05; **P<0.01; ***P<0.001).
(§1) PCRs were carried out in the ABI Prism GeneAmp 5700 (Perkin-Elmer) using the Power SYBR-Green PCR Master Mix (ABI) containing the specific primers. The expression levels of all genes were calculated relatively to HPRT or to PPIA housekeeping gene.

[3] = test system: Day 8-erythroblasts; test: Apoptosis of erythroblasts, Annexin V flow cytometry; conditions: 48 hour treatment, as low as 0.5 μM
Procedure: For that purpose, CD34^+ progenitors were cultured in serum-free medium with SCF and EPO for 8 days. […] Day 8-erythroblasts were treated with various doses of SAR405838 or MI-219 for 48 hours. The viable cells were counted by Trypan blue exclusion and the apoptotic cells were quantified by flow cytometry analysis using annexin V/ propidium iodide labeling.
B. Day 8-erythroblasts were treated with various doses of MI-219 or SAR405838 for 48 hours and counted by trypan blue exclusion. C. Day 8-erythroblasts were treated with various doses of MI-219 or SAR405838 for 48 hours and apoptotic cells were analyzed by flow cytometry using Annexin V assay. The results represent the mean of 3 independent experiments. * represents statistical significance (*P<0.05; **P<0.01; ***P<0.001).

[4] = test system: Day 6-megakaryoblasts; test: Viability of day 6-megakaryoblasts; conditions: 0.5 μM, 72 hours
Procedure: (§2) We also explored the effects of p53 stabilization at a later stage of megakaryocytic differentiation. […] Day 7-MKs were treated with 5 μM Nutlin 3a for 24 or 48 hours, which led to an increase in p53, p21, BAX, BCL2 and BCL-XL levels, confirming a functional p53 activity (Figure 6A). […] Similar results were found with day 6-megakaryoblasts treated with two doses of SAR405838 for 72 hours (Figure 6D/6E) without any major effect on the percentage of CD41^+ cells (Figure 6F). […] As shown in Figure 6D/6E, at the dose of 0.5 μM the SAR405838 induced a 50% decreased in the number of viable cells while the apoptotic cells reached 50% of the total cells. We checked if the effect of SAR405838 on MKs could be reverted by the addition of high TPO doses. CD34^+ progenitors were cultured in serum-free medium supplemented with SCF and low dose of TPO (1 ng/mL) for 6 days. Day 6-megakaryoblasts were then treated with 1.5 μM of SAR405838 for 48 hours and various doses of TPO.
In parallel, the expression of P53, BAK, BCL2L1, NOXA, PUMA, BAX, P21 and P53 were quantified by qRT-PCR related to HPRT. C. […] (n=3). D, E, F. Day 6-megakaryoblasts were exposed to MI-219 or SAR405838 (0.5 or 1 μM for 72 hours) and cell viability (D), apoptosis (E) or CD41 expression (F) were investigated. […] One representative experiment (n= 2). […]

[5] = test system: megakaryoblasts / MKs; test: Apoptosis of megakaryoblasts/MKs, Annexin V flow cytometry; conditions: day 6-megakaryoblasts
Procedure: as §2
(§3) In parallel, the expression of P53, BAK, BCL2L1, NOXA, PUMA, BAX, P21 and P53 were quantified by qRT-PCR related to HPRT. C. […] (n=3). […]
Apoptosis was measured by Annexin V-FITC detection kit (BD Pharmigen, San Diego, CA) and analyzed by flow cytometry on a LSRII (Becton Dickinson Mountain View, CA).

[6] = test system: p53 pathway in megakaryocytes (MKs); test: p53 pathway proteins and transcripts in MKs (western-blot, qRT-PCR); conditions: day 11-MKs, 1 μM, 24 hours (legend: 5 μM), compared to 1 μM MI-219 or untreated control
Procedure: as §2, §3, §1
Proteins were quantified by Image J software.

Which IC50 ([1]; 72 h, CD34+ cells treated 3 days, washed, then plated in colony assay, read-out: IC50, reduction of BFU-E progenitors) does the source give for `CC(C)(C)C[C@@H]1N[C@@H](C(=O)N[C@H]2CC[C@H](O)CC2)[C@H](c2cccc(Cl)c2F)[C@]12C(=O)Nc1cc(Cl)ccc12` [SAR405838] here?
Its IC50 is roughly 2000 nM.

What about the IC50 ([1]; CD34+ cells seeded in methylcellulose in the presence of compound, compared to untreated control, read-out: dose inducing a 50% reduction of BFU-E numbers) of the same molecule?
The IC50 was 500 to 1000 nM.

What about the “higher sensitivity of CD34+CD38- progenitors than CD34+CD38+ progenitors (BFU-E)” value ([1]; sorted CD34+CD38- immature vs CD34+CD38+ committed cells) of the same molecule?
Its value is 2 fold.

What about the “MDM2, PUMA and P21 expression (qRT-PCR related to PPIA)” value [2] of the same molecule?
The value was “dose-dependent effect”.

And the “apoptotic cells (annexin V/propidium iodide)” value [3]?
Its value is “increased in a dose-dependent manner”.

What about the “decrease in the number of viable cells” value [4] of the same molecule?
The value was 50%.

What about the “apoptotic cells, of the total cells” value ([5]; 0.5 μM, 72 hours) of the same molecule?
Its value is 50%.

What about the “reversal of compound-mediated MK apoptosis by increasing doses of TPO” value ([5]; 1.5 μM for 48 hours, various doses of TPO) of the same molecule?
The value was “unable to revert”.

And the “P21, BAX, PUMA and BCL2L1 transcripts (qRT-PCR related to HPRT)” value [6]?
Its value is “significant increase”.
